This note sets out measurements from US20170055529A1, “BROAD SPECTRUM WEED CONTROL IN FLOODED RICE BY IN-WATER APPLICATION OF AUXIN HERBICIDES” (priority 2015, published 2017).

Structures are written as SMILES.

Assay type in all cases: in vivo
The subject of assay [1] is ECHCG = Echinochloa crus-galli (barnyardgrass). Put plainly: Greenhouse in-water herbicidal activity (large pots). To be noted: 744 h, read-out: Percent (%) Visual Injury Ratings - 31 DAA, ECHCG.
Assay [2] has as its system CYPDI = Cyperus difformis (small-flower flatsedge). Put plainly: Field trial in-water herbicidal efficacy. As to the method: (§1) Field trials were conducted in rice using standard herbicide small plot research methodology. Plot size was 2 square meters (m^2) using 1.6 meter (m) diameter rings placed into the rice paddy soil with capability for flooding to maintain good rice cultural practices and rice growing conditions. There were 3 replicates per treatment. Rice was Japonica type that was hand-transplanted into the saturated soil in the rings as per normal cultural practices. The transplanted rice crop was grown using normal cultural practices for fertilization, watering, flooding and maintenance to ensure good growth of the crop and the weeds under transplanted rice conditions in Taiwan.
(§2) Treatments were applied by mixing the treatments with deionized water just prior to water-injection application by hand to multiple sides in the ring plots. For each 2 m^2 plot, 50 mL deionized water was mixed with the appropriate formulated product amounts to treat 2 m^2 to achieve the desired application rates based on unit area of application (hectare). Ring plot water depth was kept at 3 to 7 cm deep before and after water-injection application.
(§3) The rice and weeds were evaluated at 28 days after application (DAA). Triclopyr triethylammonium (as Garlon® 3 A, 360 g ae/L); fluroxypyr methylheptyl ester (meptyl or MHE, as Starane® Ultra, 333 g ae/L); 2,4-dichlorophenoxyacetic acid dimethylammonium (2,4-D AMINE, 400 g ae/L SL); penoxsulam (as Grasp® SC, 240 g ai/L); and bensulfuron-methyl (as LONDAX® 10% WAY WP) were used.
(§4) The treated and control plots were rated at 28 days after application. Ratings were based on percent (%) visual weed control, where 0 corresponds to no control and 100 corresponds to complete control.

The subject of assay [3] is ECHCG = Echinochloa crus-galli (barnyardgrass). Put plainly: Field trial in-water herbicidal efficacy. The protocol:
as §1, §2, §3, §4

The subject of assay [4] is LEFCH = Leptochloa chinensis (Chinese sprangletop). Put plainly: Field trial in-water herbicidal efficacy. As to the method: as §1, §2, §3, §4
For assay [5], the system named is MOOVA = Monochoria vaginalis (monochoria). Put plainly: Field trial in-water herbicidal efficacy. As to the method:
as §1, §2, §3, §4

Assay [6] deals with SCPJU = Schoenoplectus juncoides (Japanese bulrush). Briefly: Field trial in-water herbicidal efficacy. As to the method: as §1, §2, §3, §4

On to `CCCCCCC(C)OC(=O)COc1nc(F)c(Cl)c(N)c1Cl` (stereo not drawn) [Fluroxypyr-meptyl (Starane ® Ultra), 1-methylheptyl 2-[(4-amino-3,5-dichloro-6-fluoro-2-pyridinyl)oxy]acetate], for which the pest or weed control at 280 g/ha in assay [1] stood at 45%. The pest or weed control at 560 g/ha in assay [1] came to 75%. The pest or weed control at 1120 g/ha in assay [1] came to 99%. In addition, the “Percent (%) Visual Injury Ratings - 28 DAA, CYPDI” value was 95.0% in assay [2] (140 g ae/ha in-water 10 DAT), 98.7% in assay [2] (280 g ae/ha in-water 10 DAT) and 100.0% in assay [2] (560 g ae/ha in-water 10 DAT). For the same compound, the “Percent (%) Visual Injury Ratings - 28 DAA, ECHCG” value in assay [3] (140 g ae/ha in-water 10 DAT), in assay [3] (280 g ae/ha in-water 10 DAT) and in assay [3] (560 g ae/ha in-water 10 DAT) was 0.0% throughout. The “Percent (%) Visual Injury Ratings - 28 DAA, LEFCH” value in assay [4] (140 g ae/ha in-water 10 DAT), in assay [4] (280 g ae/ha in-water 10 DAT) and in assay [4] (560 g ae/ha in-water 10 DAT) was 0.0% in each case. Also, the “Percent (%) Visual Injury Ratings - 28 DAA, MOOVA” value in assay [5] (140 g ae/ha in-water 10 DAT) came out at 0.0%; in assay [5] (280 g ae/ha in-water 10 DAT) it was 0.0%; in assay [5] (560 g ae/ha in-water 10 DAT), 60.0%. Besides, the “Percent (%) Visual Injury Ratings - 28 DAA, SCPJU” value in assay [6] (140 g ae/ha in-water 10 DAT) came out at 88.3%; in assay [6] (280 g ae/ha in-water 10 DAT) it was 98.0%; in assay [6] (560 g ae/ha in-water 10 DAT), 99.3%.

`O=C(O)COc1nc(Cl)c(Cl)cc1Cl` [Triclopyr triethanolamine (Garlon ® 3A), triethylammonium 2[(3,5,6-trichloro-2-pyridinyl)oxy]acetate]: the pest or weed control at 280 g/ha in assay [1] amounted to 65%. Besides, the pest or weed control at 560 g/ha in assay [1] is 75%. In assay [1], the pest or weed control at 1120 g/ha amounted to 89%. For the same compound, the “Percent (%) Visual Injury Ratings - 28 DAA, CYPDI” value in assay [2] (140 g ae/ha in-water 10 DAT), in assay [2] (280 g ae/ha in-water 10 DAT) and in assay [2] (560 g ae/ha in-water 10 DAT) was 0.0% throughout. The “Percent (%) Visual Injury Ratings - 28 DAA, ECHCG” value in assay [3] (140 g ae/ha in-water 10 DAT), in assay [3] (280 g ae/ha in-water 10 DAT) and in assay [3] (560 g ae/ha in-water 10 DAT) was 0.0% each time. In addition, the “Percent (%) Visual Injury Ratings - 28 DAA, LEFCH” value in assay [4] (140 g ae/ha in-water 10 DAT), in assay [4] (280 g ae/ha in-water 10 DAT) and in assay [4] (560 g ae/ha in-water 10 DAT) was 0.0% throughout. The “Percent (%) Visual Injury Ratings - 28 DAA, MOOVA” value in assay [5] (140 g ae/ha in-water 10 DAT), in assay [5] (280 g ae/ha in-water 10 DAT) and in assay [5] (560 g ae/ha in-water 10 DAT) was 0.0% each time. Moreover, the “Percent (%) Visual Injury Ratings - 28 DAA, SCPJU” value in assay [6] (140 g ae/ha in-water 10 DAT), in assay [6] (280 g ae/ha in-water 10 DAT) and in assay [6] (560 g ae/ha in-water 10 DAT) was 0.0% in each case.

As for `O=C(O)COc1ccc(Cl)cc1Cl` [2,4-D DMA (Weedar ® 64), dimethylammonium 2-(2,4-dichlorophenoxy)acetate], the pest or weed control at 280 g/ha in assay [1] was found to be 30%. Also, in assay [1], the pest or weed control at 560 g/ha is 38%. The pest or weed control at 1120 g/ha in assay [1] is 65%. Besides, the figures for the “Percent (%) Visual Injury Ratings - 28 DAA, CYPDI” value in assay [2] (140 g ae/ha in-water 10 DAT), in assay [2] (280 g ae/ha in-water 10 DAT) and in assay [2] (560 g ae/ha in-water 10 DAT) were 0.0%, 94.3% and 100.0%, respectively. In addition, the “Percent (%) Visual Injury Ratings - 28 DAA, ECHCG” value in assay [3] (140 g ae/ha in-water 10 DAT), in assay [3] (280 g ae/ha in-water 10 DAT) and in assay [3] (560 g ae/ha in-water 10 DAT) was 0.0% each time. Besides, the “Percent (%) Visual Injury Ratings - 28 DAA, LEFCH” value in assay [4] (140 g ae/ha in-water 10 DAT), in assay [4] (280 g ae/ha in-water 10 DAT) and in assay [4] (560 g ae/ha in-water 10 DAT) was 0.0% throughout. For the same compound, the “Percent (%) Visual Injury Ratings - 28 DAA, MOOVA” value in assay [5] (140 g ae/ha in-water 10 DAT) turned out to be 0.0%; in assay [5] (280 g ae/ha in-water 10 DAT), 6.7%; in assay [5] (560 g ae/ha in-water 10 DAT) it was 93.3%. Further, the “Percent (%) Visual Injury Ratings - 28 DAA, SCPJU” value in assay [6] (140 g ae/ha in-water 10 DAT) came to 10.0%; in assay [6] (280 g ae/ha in-water 10 DAT) it was 90.0%; in assay [6] (560 g ae/ha in-water 10 DAT), 100.0%.
